Tested on: HBV
Test: HBV infection in HepG2-NTCP cells (HBeAg AlphaLISA in supernatants)
Format: cell-based
Settings: Hepatitis B virus, 192 h, read-out: Cellular EC50 (μM)
How it was run: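 HepG2-NTCP A3 cells were pre-incubated 2 h with 3-fold serially diluted compounds, then infected with HBV at 2000 GE/cell with 4% PEG (0.5% DMSO final). After washing on day 1, cells stayed in 2.5% DMSO medium; supernatant HBeAg measured by AlphaLISA on day 8, EC50 versus DMSO controls.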

Row | Structure (SMILES) | EC50 [µM]
1 | CCOP(=O)(OCC)c1cccc(-c2cc3c(cc2Cl)N(c2ccccc2)C[C@@H](CC(C)C)N(C)S3(=O)=O)c1 [Example 169] | > 1

Same assay, conditions: Hepatitis B virus, 192 h; HBV infection of HepG2-NTCP cells; HBeAg in supernatants at day 8 post infection; read-out: Cellular EC50

Row | Structure (SMILES) | EC50 [µM]
2 | CCOc1ccc(-c2cc3c(cc2Cl)N(c2ccccc2)C[C@@H](C2CCCCC2)N(C)S3(=O)=O)cc1C(=O)O [Example 155, (R)-5-(7-chloro-3-cyclohexyl-2-methyl-1,1-dioxido-5-phenyl-2,3,4,5-tetrahydrobenzo[f][1,2,5]thiadiazepin-8-yl)-2-ethoxybenzoic acid] | 0.1 to 1
3 | CN1[C@H](C2CCCCC2)CN(c2ccccc2)c2cc(Cl)c(-c3ccc(O)c(C(=O)O)c3)cc2S1(=O)=O [Example 156, (R)-5-(7-chloro-3-cyclohexyl-2-methyl-1,1-dioxido-5-phenyl-2,3,4,5-tetrahydrobenzo[f][1,2,5]thiadiazepin-8-yl)-2-hydroxybenzoic acid] | < 0.1
4 | CN1[C@H](C2CCCCC2)CN(c2ccccc2)c2cc(F)c(-c3ccc(N)c(C(=O)O)c3)cc2S1(=O)=O [Example 158] | 0.1 to 1
5 | CN1[C@H](C2CCC2)CN(c2ccccc2)c2cc(Cl)c(-c3ccc(O)c(C(=O)O)c3)cc2S1(=O)=O [Example 159] | 0.1 to 1
6 | CC(C)C[C@@H]1CN(c2ccccc2)c2cc(Cl)c(-c3ccc(O)c(C(=O)O)c3)cc2S(=O)(=O)N1C [Example 160, (R)-5-(7-chloro-3-isobutyl-2-methyl-1,1-dioxido-5-phenyl-2,3,4,5-tetrahydrobenzo[f][1,2,5]thiadiazepin-8-yl)-2-hydroxybenzoic acid] | < 0.1
7 | CC(C)C[C@@H]1CN(c2ccccc2)c2cc(Cl)c(-c3cc(OC(F)(F)F)cc(C(=O)O)c3)cc2S(=O)(=O)N1C [Example 161] | 0.1 to 1
8 | CC(C)C[C@@H]1CN(c2ccccc2)c2cc(Cl)c(-c3cccc(C4(C(=O)O)CC4)c3)cc2S(=O)(=O)N1C [Example 162] | > 1
9 | CC(C)C[C@@H]1CN(c2ccccc2)c2cc(Cl)c(-c3ccc(OC(F)(F)F)c(C(=O)O)c3)cc2S(=O)(=O)N1C [Example 163, (R)-5-(7-chloro-3-isobutyl-2-methyl-1,1-dioxido-5-phenyl-2,3,4,5-tetrahydrobenzo[f][1,2,5]thiadiazepin-8-yl)-2-(trifluoromethoxy)benzoic acid] | < 0.1
10 | CC(C)C[C@@H]1CN(c2ccccc2)c2cc(Cl)c(-c3cc(C(=O)O)cc(C(F)(F)F)c3)cc2S(=O)(=O)N1C [Example 164] | 0.1 to 1
11 | CC(C)C[C@@H]1CN(c2ccccc2)c2cc(Cl)c(-c3ccc(C(F)F)c(C(=O)O)c3)cc2S(=O)(=O)N1C [Example 165] | 0.1 to 1
12 | CC(C)C[C@@H]1CN(c2ccccc2)c2cc(Cl)c(-c3ccc(Cl)c(C(N)=O)c3)cc2S(=O)(=O)N1C [Example 166] | > 1
13 | CC(C)C[C@@H]1CN(c2ccccc2)c2cc(Cl)c(-c3cccc(C(N)=O)c3)cc2S(=O)(=O)N1C [Example 167] | > 1
14 | CC(C)C[C@@H]1CN(c2ccccc2)c2cc(Cl)c(-c3cccc(S(N)(=O)=O)c3)cc2S(=O)(=O)N1C [Example 168] | > 1
15 | CC(C)C[C@@H]1CN(c2ccccc2)c2cc(Cl)c(-c3ccc4onc(N)c4c3)cc2S(=O)(=O)N1C [Example 170] | > 1
16 | CC(C)C[C@@H]1CN(c2ccccc2)c2cc(Cl)c(-c3cccc(/C=C/C(=O)O)c3)cc2S(=O)(=O)N1C [Example 171] | > 1
17 | CC(C)C[C@@H]1CN(c2ccccc2)c2cc(Cl)c(-c3cccc(CCC(=O)O)c3)cc2S(=O)(=O)N1C [Example 172] | > 1
18 | CC(C)C[C@@H]1CN(c2ccccc2)c2cc(Cl)c(-c3cccc(CC(=O)O)c3)cc2S(=O)(=O)N1C [Example 173] | > 1
19 | CN1[C@H](C2CCCCC2)CN(c2ccccc2)c2cc(Cl)c(-c3ccc(OC(F)(F)F)c(C(=O)O)c3)cc2S1(=O)=O [Example 174] | 0.1 to 1
20 | CN1[C@H](C2CCCCC2)CN(c2ccccc2)c2cc(Cl)c(-c3cccc(S(N)(=O)=O)c3)cc2S1(=O)=O [Example 175] | > 1
21 | CN1[C@H](C2CCCCC2)CN(c2ccccc2)c2cc(F)c(-c3ccc(F)c(C(=O)O)c3)cc2S1(=O)=O [Example 176] | < 0.1
22 | CN1[C@H](C2CCC2)CN(c2ccccc2)c2cc(Cl)c(-c3ccc(OC(F)(F)F)c(C(=O)O)c3)cc2S1(=O)=O [Example 177] | < 0.1
23 | CN1[C@H](C2CCC2)CN(c2ccccc2)c2cc(Cl)c(-c3cccc(S(N)(=O)=O)c3)cc2S1(=O)=O [Example 178] | > 1
24 | COc1cc(-c2cc3c(cc2Cl)N(c2ccccc2)C[C@@H](CC(C)C)N(C)S3(=O)=O)cc(C(=O)O)c1F [Example 179, (R)-5-(7-chloro-3-isobutyl-2-methyl-1,1-dioxido-5-phenyl-2,3,4,5-tetrahydrobenzo[f][1,2,5]thiadiazepin-8-yl)-2-fluoro-3-methoxybenzoic acid] | 0.1 to 1
25 | CC(C)C[C@@H]1CN(c2ccccc2)c2cc(Cl)c(-c3ccc4o[nH]c(=O)c4c3)cc2S(=O)(=O)N1C [Example 180] | 0.1 to 1
26 | CC(C)C[C@@H]1CN(c2ccccc2)c2cc(Cl)c(-c3ccc4[nH]ncc4c3)cc2S(=O)(=O)N1C [Example 181] | > 1
27 | COC(=O)c1noc2ccc(-c3cc4c(cc3Cl)N(c3ccccc3)C[C@@H](CC(C)C)N(C)S4(=O)=O)cc12 [Example 182] | 0.1 to 1

Row | Structure (SMILES) | EC50 [µM]
28 | CC(C)C[C@@H]1CN(c2ccccc2)c2cc(Cl)c(-c3ccc([N+](=O)[O-])c(C(=O)O)c3)cc2S(=O)(=O)N1C [Example 183] | < 0.1
29 | CC(C)C[C@@H]1CN(c2ccccc2)c2cc(Cl)c(-c3cccc(S(C)(=N)=O)c3)cc2S(=O)(=O)N1C (stereo partly shown) [Example 184] | > 1
30 | CC(C)C[C@@H]1CN(c2ccccc2)c2cc(Cl)c(-c3ccc4oncc4c3)cc2S(=O)(=O)N1C [Example 185] | 0.1 to 1
31 | CC(C)C[C@@H]1CN(c2ccccc2)c2cc(Cl)c(-c3ccc(C(F)(F)F)c(C(=O)O)c3)cc2S(=O)(=O)N1C [Example 186] | < 0.1
32 | CC(C)C[C@@H]1CN(c2ccccc2)c2cc(Cl)c(-c3ccc(C#N)c(C(=O)O)c3)cc2S(=O)(=O)N1C [Example 187] | 0.1 to 1
33 | CN1[C@H](C2CCCCC2)CN(c2ccccc2)c2cc(Cl)c(-c3ccc([N+](=O)[O-])c(C(=O)O)c3)cc2S1(=O)=O [Example 189, (R)-5-(7-chloro-3-cyclohexyl-2-methyl-1,1-dioxido-5-phenyl-2,3,4,5-tetrahydrobenzo[f][1,2,5]thiadiazepin-8-yl)-2-nitrobenzoic acid] | < 0.1
34 | CN1[C@H](C2CCCCC2)CN(c2ccccc2)c2cc(Cl)c(-c3cc(F)c(N)c(C(=O)O)c3)cc2S1(=O)=O [Example 190] | 0.1 to 1
35 | COc1cc(-c2cc3c(cc2Cl)N(c2ccccc2)C[C@@H](C2CCCCC2)N(C)S3(=O)=O)cc(C(=O)O)c1N [Example 191] | < 0.1
36 | CN1[C@H](C2CCCCC2)CN(c2ccccc2)c2cc(Cl)c(-c3cnc(O)c(C(=O)O)c3)cc2S1(=O)=O [Example 193] | 0.1 to 1
37 | CN1[C@H](C2CCCCC2)CN(c2ccccc2)c2cc(Cl)c(-c3cc(C(=O)O)c4ccccc4c3)cc2S1(=O)=O [Example 196] | 0.1 to 1
38 | CN1[C@H](C2CCCCC2)CN(c2ccccc2)c2cc(Cl)c(-c3ccc4c(c3)C(=O)NC4=O)cc2S1(=O)=O [Example 197] | > 1
39 | CN1[C@H](C2CCCCC2)CN(c2ccccc2)c2cc(Cl)c(-c3ccc4c(c3)S(=O)(=O)NC4=O)cc2S1(=O)=O [Example 198] | 0.1 to 1
40 | CN1[C@H](C2CCCCC2)CN(c2ccccc2)c2cc(Cl)c(-c3ccc(F)c(S(N)(=O)=O)c3)cc2S1(=O)=O [Example 199] | 0.1 to 1
41 | CN1[C@H](C2CCCCC2)CN(c2ccccc2)c2cc(Cl)c(-c3ccc(Cl)c(S(N)(=O)=O)c3)cc2S1(=O)=O [Example 200] | 0.1 to 1
42 | CN1[C@H](C2CCCCC2)CN(c2ccccc2)c2cc(Cl)c(-c3ccc4oncc4c3)cc2S1(=O)=O [Example 202] | 0.1 to 1
43 | CN1[C@H](C2CCC2)CN(c2ccccc2)c2cc(Cl)c(-c3ccc([N+](=O)[O-])c(C(=O)O)c3)cc2S1(=O)=O [Example 203] | < 0.1
44 | CN1[C@H](C2CCC2)CN(c2ccccc2)c2cc(Cl)c(-c3ccc(C(F)(F)F)c(C(=O)O)c3)cc2S1(=O)=O [Example 204] | < 0.1
45 | CC(C)C[C@@H]1CN(c2ccccc2)c2cc(Cl)c(-c3cccc(C(=O)C(=O)O)c3)cc2S(=O)(=O)N1C [Example 205, (R)-2-(3-(7-chloro-3-isobutyl-2-methyl-1,1-dioxido-5-phenyl-2,3,4,5-tetrahydrobenzo[f][1,2,5]thiadiazepin-8-yl)phenyl)-2-oxoacetic acid] | < 0.1
46 | CN1[C@H](C2CCC2)CN(c2ccccc2)c2cc(Cl)c(-c3cccc(C(=O)C(=O)O)c3)cc2S1(=O)=O [Example 206] | < 0.1
47 | CN1[C@H](C2CCCCC2)CN(c2ccccc2)c2cc(Cl)c(-c3cccc(C(=O)C(=O)O)c3)cc2S1(=O)=O [Example 207] | < 0.1
48 | CN1[C@H](C2CCCCC2)CN(c2ccccc2)c2cc(Cl)c(-c3cc(C(=O)O)c4cn[nH]c4c3)cc2S1(=O)=O [Example 208, (R)-6-(7-chloro-3-cyclohexyl-2-methyl-1,1-dioxido-5-phenyl-2,3,4,5-tetrahydrobenzo[f][1,2,5]thiadiazepin-8-yl)-1H-indazole-4-carboxylic acid] | > 1
49 | CN1[C@H](C2CCCCC2)CN(c2ccccc2)c2cc(Cl)c(-c3cc(C(=O)O)c4cc[nH]c4c3)cc2S1(=O)=O [Example 209] | 0.1 to 1
50 | CN1[C@H](C2CCCCC2)CN(c2ccccc2)c2cc(Cl)c(-c3cc(C(=O)O)c4ncccc4c3)cc2S1(=O)=O [Example 210] | 0.1 to 1
51 | CN1[C@H](C2CCCCC2)CN(c2ccccc2)c2cc(Cl)c(-c3cc(C(=O)O)c4nccn4c3)cc2S1(=O)=O [Example 211] | 0.1 to 1
52 | CC(C)C[C@@H]1CN(c2ccccc2)c2cc(Cl)c(-c3ccc4[nH]cc(C(=O)O)c4c3)cc2S(=O)(=O)N1C [Example 212] | > 1

Reference: patent publication US20240368096A1 (Enanta Pharmaceuticals, Inc., priority 2022, published 2024)
